Results published in US10376530B2, “Pharmaceutical composition for preventing or treating gleevec-resistant leukemia containing ginsenoside F1 or ginsenoside Rg3 as an active ingredient” (INTELLIGENT SYNTHETIC BIOLOGY CENTER, priority 2015, dated 2019).

Experiments:
Assay type in all cases: cell-based, human
NK cells [1] = experiment: CD107a level on NK cells in PBMC stimulated with K562 target cells, flow cytometry (Example 1); conditions: PBMC (NK cell purity 95% or higher) treated with ginsenoside, then K562 target cells; FIG. 1
Protocol: To discover ginsenosides which can affect the cell-killing activity of NK cells, peripheral blood mononuclear cells (PBMC) separated from the blood were treated with 15 different kinds of (C-K, F2, PPD, Rb1, Rb2, Rc, Rd, Rg3, Rh2, F1, PPT, Re, Rg1, Rg2, and Rh1) ginsenosides, and then, the level of CD107a, which is a marker protein representing cell-killing activity and expressed on NK cells, was measured by flow cytometry (FIG. 1).
In particular, for the PBMC, those selected as follows were used. That is, the collected blood samples were transferred into Vacutainer Cell Preparation tubes (sodium heparin; BD Biosciences), centrifuged to recover a buffy coat, lymphocytes and monocyte band, and the recovered buffy coat was washed with PBS and applied to the human NK cell negative selection kit (Miltenyl Biotech) to isolate […].
Additionally, the CD107a level was measured as follows. […] Then, the NK cells were isolated by performing flow cytometry analysis using anti-CD3 antibody and anti-CD56 antibody, and the NK cells were immunostained using anti-CD107a antibody and the level of CD107a was measured.

NK cells [2] = experiment: Intracellular IFN-γ expression by NK cells in PBMC stimulated with mutants of KCL-22 cells, flow cytometry (Example 2); conditions: PBMC treated with ginsenoside, stimulated with equal number of mutants of KCL-22 cells, Brefeldin A; FIG. 2
Protocol: The 7 different kinds of ginsenosides discovered in Example 1 were treated and those ginsenosides which increased the expression level of the immune-stimulating factor (IFN-γ) by NK cells were selected (FIG. 2). In particular, the expression level of IFN-γ was measured as follows. That is, the PBMC samples isolated in Example 1 were treated with each ginsenoside, stimulated by treating with the equal number of target cells (mutants of KCL-22 cells), and then treated with Brefeldin A (GolgiPlug; BD Biosciences). Thereafter, a flow cytometry analysis was performed using fluochrome-conjugated anti-CD3 antibody and anti-CD56 antibody to identify NK cells present in PBMC, and then treated with Cytofix/Cytoperm (BD Biosicences) for perforation, and immunostained with fluochrome-conjugated anti-IFN-γ antibody to measure the intracellular level of IFN-γ(FIG. 2).

[3] = tested on: Gleevec-resistant mutants of KCL-22 cells; experiment: Cell-killing activity of NK cells against europium-labeled target cells (Example 5); conditions: E:T ratios 0.625:1, 1.25:1, 2.5:1, 5:1; DMSO control; FIGS. 5A and 5B
Protocol: The NK cells isolated in Example 1 was treated with ginsenoside F1 or ginsenoside Rg3, and incubated with target cells (Gleevec-resistant mutants of KCL-22 cells) labeled with an europium fluorescent dye at various E:T ratios (the ratio between the number of NK cells:the number of target cells=0.625:1, 1.25:1, 2.5:1, or 5:1), and thereby breaking down the target cells with the NK cells activated by the ginsenoside, and the europium fluorescent dye labeled to the target cells was released as a reaction solution. Upon completion of the reaction, the level of the europium fluorescent dye contained in the reaction solution was measured, and the cell-killing activity of the NK cells was compared (FIGS. 5A and 5B). In particular, NK cells treated with DMSO, instead of ginsenosides, were used as control group.

NK cells [4] = experiment: CD107a level on primary NK cells incubated with mutants of KCL-22 cells (Example 3); conditions: NK cells isolated from PBMC, incubated with mutants of KCL-22 cells (Gleevec-resistant leukemia cells); DMSO control; FIG. 3
Protocol: An attempt was made to select ginsenosides which induce the increase of the CD107a level on primary NK cells among the 4 different kinds of ginsenosides (Rg3, Rh2, F1, and Rg1) selected in Example 2.
Specifically, the NK cells isolated from the PBMC were activated by treating with the 4 different kinds of ginsenosides, then incubated with mutants of KCL-22 cells (i.e., Gleevec-resistant leukemia cells), and the level of CD107a on NK cells was measured and compared (FIG. 3). In particular, NK cells treated with DMSO, instead of ginsenosides, were used as a control group.

NK cells [5] = experiment: Concentration-dependent change of CD107a level on NK cells (Example 4); conditions: NK cells isolated from PBMC, 5 μM to 20 μM; DMSO control; FIGS. 4A and 4B
Protocol: NK cells isolated from PBMC were treated with ginsenoside F1 (which increases the selected CD107a level to the highest level) and Rg3 (which increases the selected CD107a level to the 2nd highest level), selected from Example 3, at various concentrations (5 μM to 20 μM), and the change in the CD107a level was measured (FIGS. 4A and 4B). In particular, NK cells treated with DMSO, instead of ginsenosides, were used as a control group.

Structure (SMILES)	level of CD107a expression on NK cells (NK cells [1])	expression level of IFN-γ by NK cells (NK cells [2])	cell-killing activity of NK cells (europium fluorescent dye release) [3]	level of CD107a on primary NK cells (rank among the 4 ginsenosides) (NK cells [4]) [nd highest]	change in the CD107a level on NK cells by concentration (NK cells [5])
CC(C)=CCC[C@](C)(O[C@@H]1O[C@H](CO)[C@@H](O)[C@H](O)[C@H]1O)[C@H]1CC[C@]2(C)[C@@H]1[C@H](O)C[C@@H]1[C@@]3(C)CC[C@H](O[C@@H]4O[C@H](CO)[C@@H](O)[C@H](O)[C@H]4O)C(C)(C)[C@@H]3CC[C@]12C [F2]	increase the level of CD107a expression on NK cells	–	–	–	–
CC(C)=CCC[C@](C)(O[C@@H]1O[C@H](CO[C@@H]2O[C@H](CO)[C@@H](O)[C@H](O)[C@H]2O)[C@@H](O)[C@H](O)[C@H]1O)[C@H]1CC[C@]2(C)[C@@H]1[C@H](O)C[C@@H]1[C@@]3(C)CC[C@H](O[C@@H]4O[C@H](CO)[C@@H](O)[C@H](O)[C@H]4O[C@@H]4O[C@H](CO)[C@@H](O)[C@H](O)[C@H]4O)C(C)(C)[C@@H]3CC[C@]12C [Rb1]	increase the level of CD107a expression on NK cells	–	–	–	–
CC(C)=CCC[C@](C)(O[C@@H]1O[C@H](CO)[C@@H](O)[C@H](O)[C@H]1O)[C@H]1CC[C@]2(C)[C@@H]1[C@H](O)C[C@@H]1[C@@]3(C)CC[C@H](O)C(C)(C)[C@@H]3[C@@H](O[C@@H]3O[C@H](CO)[C@@H](O)[C@H](O)[C@H]3O)C[C@]12C [Rg1]	increase the level of CD107a expression on NK cells	increased	–	–	–
CC(C)=CCC[C@](C)(O)[C@H]1CC[C@]2(C)[C@@H]1[C@H](O)C[C@@H]1[C@@]3(C)CC[C@H](O)C(C)(C)[C@@H]3[C@@H](O[C@@H]3O[C@H](CO)[C@@H](O)[C@H](O)[C@H]3O[C@@H]3O[C@@H](C)[C@H](O)[C@@H](O)[C@H]3O)C[C@]12C [Rg2]	increase the level of CD107a expression on NK cells	–	–	–	–
CC(C)=CCC[C@](C)(O)[C@H]1CC[C@]2(C)[C@@H]1[C@H](O)C[C@@H]1[C@@]3(C)CC[C@H](O[C@@H]4O[C@H](CO)[C@@H](O)[C@H](O)[C@H]4O)C(C)(C)[C@@H]3CC[C@]12C [Rh2]	increase the level of CD107a expression on NK cells	increased	–	–	–
CC(C)=CCC[C@](C)(O)[C@H]1CC[C@]2(C)[C@@H]1[C@H](O)C[C@@H]1[C@@]3(C)CC[C@H](O[C@@H]4O[C@H](CO)[C@@H](O)[C@H](O)[C@H]4O[C@@H]4O[C@H](CO)[C@@H](O)[C@H](O)[C@H]4O)C(C)(C)[C@@H]3CC[C@]12C [ginsenoside Rg3, 20(S)-protopanaxadiol-3-0-β-D-glucopyranosyl(1,2)-β-D-glucopyranoside]	increase the level of CD107a expression on NK cells	increased	promote the cell-killing activity of NK cells against mutants of KCL-22 cells	2	increase the expression levels of CD107a on NK cells in a concentration-dependent manner
